In ChEMBL document CHEMBL5500407, “Designing Chromane Derivatives as α2A-Adrenoceptor Selective Agonists via Conformation Constraint” (J Med Chem, 2024):
The source made the active and inactive calls. The calls are words filed in the database; no cut-off is given here.

Tests used:
[1] = molecular target: T1, Alpha-2A adrenergic receptor (Homo sapiens, UniProt P08913); test: Agonist activity at human alpha2A adrenoceptor assessed as [35S]GTPgammaS binding by scintillation counting analysis; type: functional
T1 sequence (P08913 whole entry): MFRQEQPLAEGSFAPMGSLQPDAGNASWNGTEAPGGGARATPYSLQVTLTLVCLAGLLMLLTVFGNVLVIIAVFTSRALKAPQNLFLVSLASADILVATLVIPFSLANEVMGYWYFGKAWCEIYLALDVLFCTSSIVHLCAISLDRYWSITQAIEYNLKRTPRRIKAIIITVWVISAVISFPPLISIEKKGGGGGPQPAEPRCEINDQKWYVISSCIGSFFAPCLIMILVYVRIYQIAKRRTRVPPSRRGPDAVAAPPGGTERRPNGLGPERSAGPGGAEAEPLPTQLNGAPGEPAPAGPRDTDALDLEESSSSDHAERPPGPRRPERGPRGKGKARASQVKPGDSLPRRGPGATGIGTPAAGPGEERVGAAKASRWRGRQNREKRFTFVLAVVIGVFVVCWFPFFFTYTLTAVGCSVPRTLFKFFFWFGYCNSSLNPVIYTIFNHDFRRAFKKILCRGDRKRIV

[2] = molecular target: T2, Alpha-2B adrenergic receptor (Homo sapiens, UniProt P18089); test: Agonist activity at alpha2B-adrenoceptor (unknown origin) expressed in U2OS-EGFP-NFAT2-alpha2B-AR cells assessed as increase in intracellular calcium level measured after 15 mins incubation by Micro automated microscopy; type: functional, cell-based
T2 sequence (P18089 whole entry): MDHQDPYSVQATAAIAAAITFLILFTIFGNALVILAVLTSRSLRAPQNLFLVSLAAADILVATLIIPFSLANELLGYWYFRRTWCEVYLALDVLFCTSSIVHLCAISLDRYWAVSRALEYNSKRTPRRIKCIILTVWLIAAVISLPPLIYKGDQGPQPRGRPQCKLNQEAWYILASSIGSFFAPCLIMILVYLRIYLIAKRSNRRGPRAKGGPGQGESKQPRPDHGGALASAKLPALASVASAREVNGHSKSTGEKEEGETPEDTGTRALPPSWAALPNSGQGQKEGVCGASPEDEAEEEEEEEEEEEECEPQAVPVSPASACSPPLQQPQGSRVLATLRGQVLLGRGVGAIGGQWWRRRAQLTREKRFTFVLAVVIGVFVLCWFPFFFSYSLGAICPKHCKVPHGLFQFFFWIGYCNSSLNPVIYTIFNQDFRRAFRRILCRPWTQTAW

[3] = molecular target: T3, Alpha-2C adrenergic receptor (Homo sapiens, UniProt P18825); test: Agonist activity at alpha2C-adrenoceptor (unknown origin) expressed in CHO-alpha2C-PKAcatEGFP cells assessed as increase in intracellular calcium level measured after 15 mins incubation by Micro automated microscopy; type: functional, cell-based
T3 sequence (P18825 whole entry): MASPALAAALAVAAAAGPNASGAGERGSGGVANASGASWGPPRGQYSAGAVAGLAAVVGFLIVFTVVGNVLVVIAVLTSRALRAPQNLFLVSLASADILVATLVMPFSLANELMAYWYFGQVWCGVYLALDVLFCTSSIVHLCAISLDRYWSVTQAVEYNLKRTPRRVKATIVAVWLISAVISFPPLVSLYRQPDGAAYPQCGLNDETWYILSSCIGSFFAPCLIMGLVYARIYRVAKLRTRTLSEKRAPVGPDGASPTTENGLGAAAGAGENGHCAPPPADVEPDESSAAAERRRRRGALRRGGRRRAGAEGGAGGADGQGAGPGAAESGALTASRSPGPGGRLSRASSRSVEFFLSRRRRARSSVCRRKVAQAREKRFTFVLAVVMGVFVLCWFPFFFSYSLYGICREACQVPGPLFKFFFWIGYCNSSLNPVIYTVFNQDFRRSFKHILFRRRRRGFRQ

[4] = molecular target: T4, Alpha-1A adrenergic receptor (Homo sapiens, UniProt P35348); test: Agonist activity at alpha1A-adrenoceptor (unknown origin) expressed in HEK293T cells assessed as fluorescence intensity measured after 30 mins by IP-one homogeneous time-resolved fluorescence assay; type: functional, cell-based
T4 sequence (P35348 whole entry): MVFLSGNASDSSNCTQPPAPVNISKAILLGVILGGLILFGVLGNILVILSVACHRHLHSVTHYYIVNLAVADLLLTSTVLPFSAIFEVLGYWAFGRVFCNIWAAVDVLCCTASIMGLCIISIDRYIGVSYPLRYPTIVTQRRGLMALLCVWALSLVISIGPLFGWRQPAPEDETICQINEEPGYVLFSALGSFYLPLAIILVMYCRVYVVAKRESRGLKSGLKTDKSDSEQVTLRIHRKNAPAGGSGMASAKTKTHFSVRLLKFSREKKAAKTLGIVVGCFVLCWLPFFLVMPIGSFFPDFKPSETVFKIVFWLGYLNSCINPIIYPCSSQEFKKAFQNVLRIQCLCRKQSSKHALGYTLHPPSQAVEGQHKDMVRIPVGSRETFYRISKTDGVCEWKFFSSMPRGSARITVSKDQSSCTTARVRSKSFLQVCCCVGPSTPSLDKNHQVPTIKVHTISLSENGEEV

[5] = Metabolic stability in mouse liver microsomes assessed as elimination half life; type: ADME, Microsome
[6] = Metabolic stability in mouse liver microsomes assessed as intrinsic clearance; type: ADME, Microsome; conditions: read-out: CLH
Mus musculus [7] = test: Hypnotic activity in ip dosed C57BL/6 mouse assessed as increase in immobility time; type: functional, organism-based
Mus musculus [8] = test: Hypnotic activity in C57BL/6 mouse assessed as increase in loss of righting reflex (LORR) in presence of atipamezole alpha2-adrenoceptor antagonist at 0.60 mg/kg, ip; type: functional, organism-based; conditions: dose 0.6 mg/kg
Mus musculus [9] = test: Hypnotic activity in C57BL/6 mouse assessed as increase in loss of righting reflex (LORR) in presence of BRL44408 alpha2A-adrenoceptor antagonist at 0.60 mg/kg, ip; type: functional, organism-based; conditions: dose 0.6 mg/kg
Mus musculus [10] = test: Hypnotic activity in C57BL/6 mouse assessed as increase in loss of righting reflex (LORR) in presence of ARC239 alpha2B-adrenoceptor antagonist at 0.60 mg/kg, ip; type: functional, organism-based; conditions: dose 0.6 mg/kg
Mus musculus [11] = test: Hypnotic activity in C57BL/6 mouse assessed as increase in loss of righting reflex (LORR) in presence of JP1302 alpha2C-adrenoceptor antagonist at 0.60 mg/kg, ip; type: functional, organism-based; conditions: dose 0.6 mg/kg
Mus musculus [12] = test: Hypnotic activity in C57BL/6 mouse assessed as increase in induction time righting reflex (LORR) in presence of atipamezole alpha2-adrenoceptor antagonist at 0.60 mg/kg, ip; type: functional, organism-based; conditions: dose 0.6 mg/kg
HEK293T [13] = test: Agonist activity at alpha2A-adrenoceptor D128A mutant (unknown origin) expressed in HEK293T cells co-expressing pGloSensor-22F cAMP plasmid assessed as at 0.000001 to 100 uM measured after 10 mins incubation by multiplate reader; type: cell-based; conditions: Homo sapiens, dose lower 1e-06 µM, dose upper 100.0 µM
HEK293T [14] = test: Agonist activity at alpha2A-adrenoceptor Y409A mutant (unknown origin) expressed in HEK293T cells co-expressing pGloSensor-22F cAMP plasmid assessed as at 0.000001 to 100 uM measured after 10 mins incubation by multiplate reader; type: cell-based; conditions: Homo sapiens, dose lower 1e-06 µM, dose upper 100.0 µM
HEK293T [15] = test: Agonist activity at alpha2A-adrenoceptor F427A mutant (unknown origin) expressed in HEK293T cells co-expressing pGloSensor-22F cAMP plasmid assessed as at 1 to 100 uM measured after 10 mins incubation by multiplate reader; type: cell-based; conditions: Homo sapiens, filed as agonist, dose 1-100 µM
[16] = molecular target: T5, Adrenergic receptor alpha-1 (Homo sapiens, UniProt P35348+P25100+P35368); test: Binding affinity to alpha1-adrenoceptor (unknown origin); type: protein assay
T5 sequence (P35348 whole entry): T4 sequence (P35348 whole entry)
T5 sequence (P25100 whole entry): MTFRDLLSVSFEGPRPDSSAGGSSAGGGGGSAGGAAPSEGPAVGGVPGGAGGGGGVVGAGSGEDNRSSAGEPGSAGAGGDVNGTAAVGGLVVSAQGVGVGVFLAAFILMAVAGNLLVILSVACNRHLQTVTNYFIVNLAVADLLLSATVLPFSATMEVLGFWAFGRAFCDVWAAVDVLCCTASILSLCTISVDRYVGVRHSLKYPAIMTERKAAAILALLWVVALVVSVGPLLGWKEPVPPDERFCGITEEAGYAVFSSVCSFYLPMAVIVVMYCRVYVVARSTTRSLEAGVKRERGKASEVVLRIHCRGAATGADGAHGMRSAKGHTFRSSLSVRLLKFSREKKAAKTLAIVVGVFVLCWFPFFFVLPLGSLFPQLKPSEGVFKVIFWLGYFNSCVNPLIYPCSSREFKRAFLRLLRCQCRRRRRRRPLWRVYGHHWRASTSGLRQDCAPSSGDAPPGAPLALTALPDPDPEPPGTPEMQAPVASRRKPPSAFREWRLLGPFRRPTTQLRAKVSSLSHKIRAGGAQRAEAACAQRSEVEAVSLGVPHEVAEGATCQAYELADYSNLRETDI
T5 sequence (P35368 whole entry): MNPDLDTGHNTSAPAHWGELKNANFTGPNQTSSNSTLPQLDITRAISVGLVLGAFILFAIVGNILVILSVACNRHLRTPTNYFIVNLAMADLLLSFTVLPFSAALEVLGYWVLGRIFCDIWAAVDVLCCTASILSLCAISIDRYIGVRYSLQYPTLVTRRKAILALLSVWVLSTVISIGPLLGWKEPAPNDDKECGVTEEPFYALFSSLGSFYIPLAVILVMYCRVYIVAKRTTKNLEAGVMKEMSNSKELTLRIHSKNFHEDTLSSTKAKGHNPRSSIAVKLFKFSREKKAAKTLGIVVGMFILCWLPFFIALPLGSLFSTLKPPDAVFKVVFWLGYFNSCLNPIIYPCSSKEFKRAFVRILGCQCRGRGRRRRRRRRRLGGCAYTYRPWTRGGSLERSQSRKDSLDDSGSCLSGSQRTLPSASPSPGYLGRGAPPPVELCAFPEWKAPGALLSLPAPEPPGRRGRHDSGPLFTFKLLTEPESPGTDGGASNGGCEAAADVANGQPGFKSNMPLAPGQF

[17] = molecular target: T6, Adrenergic receptor alpha-2 (Homo sapiens, UniProt P08913+P18825+P18089); test: Binding affinity to alpha2-adrenoceptor (unknown origin); type: protein assay
T6 sequence (P08913 whole entry): T1 sequence (P08913 whole entry)
T6 sequence (P18825 whole entry): T3 sequence (P18825 whole entry)
T6 sequence (P18089 whole entry): T2 sequence (P18089 whole entry)

[18] = molecular target: T7, Alpha-1B adrenergic receptor (Homo sapiens, UniProt P35368); test: Binding affinity to human alpha1B-adrenoceptor
T7 sequence (P35368 whole entry): T5 sequence (P35368 whole entry)

[19] = molecular target: T8, Alpha-1D adrenergic receptor (Homo sapiens, UniProt P25100); test: Binding affinity to human alpha1D-adrenoceptor
T8 sequence (P25100 whole entry): T5 sequence (P25100 whole entry)

[20] = molecular target: T2, Alpha-2B adrenergic receptor; test: Agonist activity at human alpha2B-adrenoceptor
[21] = molecular target: T3, Alpha-2C adrenergic receptor; test: Agonist activity at human alpha2C-adrenoceptor
[22] = molecular target: T4, Alpha-1A adrenergic receptor
Description: Binding affinity to human alpha1A-adrenoceptor

With CC(c1cccc(C2(C(F)(F)F)N=N2)c1)c1c[nH]cn1 (configuration not stated) the pEC50 [1] was 6.53.

Brc1cccc2c1OCCC2c1c[nH]cn1 (configuration not stated) showed an EC50 [2] of 163 nM, an EC50 [3] of 21.3 nM and an EC50 [4] of 2.55 nM. For the same compound, the half-life [5] was 0.797 h, the microsomal CLint [6] was 29 µL/min/mg and the Activity (Mus musculus [7]) was “Dose-Dependent Effect”. The Activity (Mus musculus [8]) was “inactive”, the Activity (Mus musculus [9]) was “inactive” and the Activity (Mus musculus [10]) was “Active”. For the same compound, the Activity (Mus musculus [11]) was “Active”, the Activity (Mus musculus [12]) was “inactive” and the Activity (HEK293T [13]) was “inactive”. The Activity (HEK293T [14]) was “inactive” and the Activity (HEK293T [15]) was “Active”.

With Cc1cccc2c1CCC2c1c[nH]cn1 (configuration not stated) the pKi [16] was 7.14 and the pKi [17] was 8.06.

In the case of Cc1cccc([C@H](C)c2cnc[nH]2)c1C [DEXMEDETOMIDINE], the Ki [18] is reported as 9120 nM, the Ki [19] is reported as 1230 nM and the EC50 [20] is reported as 3.31 nM. For the same compound, the EC50 [21] was 28.8 nM, the EC50 [2] was 1.91 nM and the EC50 [3] was 5.37 nM. It also gave an EC50 [4] of 13 nM, a half-life [5] of 2.6 h and a microsomal CLint [6] of 8.89 µL/min/mg. The Ki [22] was 1320 nM.
